Data from patent US20040101571A1, “Use of hydrogen peroxide for the treatment of warts” (priority 2002, published 2004).

Tested on: warts (human papillomavirus-induced tumors)
Assay: Topical treatment of warts in human patients (clinical case examples)
Assay type: in vivo
Description: The method of the present invention neither destroys healthy, uninfected tissue nor results in any local or systemic side effects, scarring, disfigurement or discomfort to the human treated. Furthermore, the use of the present method results in the destruction of latent viral DNA found in the tumor and the surrounding tissues so that instances of incomplete resolution and are prevented. […] In accordance with the method according to this invention, “regular use of the hydrogen peroxide” is meant to mean application of the hydrogen peroxide at least once a day to the body surface containing the wart(s). A further embodiment of the method of this invention comprises placing a small amount of gel residue or gel on the tumor to be treated. It has been determined through clinical evaluation that once the method of this invention is initiated, the warts begin to shrink, no matter what size, and will totally disappear after a period of four to six weeks of treatment, or less if the gel is applied more often than once daily at bedtime.
A person presented with warts on the right foot of some two months duration; measuring about 3 mm in diameter, with raised dark spots on the surface. Hydrogen peroxide gel was applied once daily at bedtime over the wart with a Q-tip and left open to air dry. […]

OO [hydrogen peroxide]
period of treatment until warts totally disappear (clinical evaluation, applied once daily at bedtime, warts of any size begin to shrink, less if applied more often): four to six
overall clinical experience in treatment and elimination of warts (clinical experience to date): complete eradication of the warts with no recurrence
